We go through five compounds from PubChem BioAssay AID1259407 (Chemical Carcinogenesis Research Information System (CCRIS), 2018).

This data set has as its system CCRIS mutagenicity, Ames/micronucleus/aberration tests. Kind of data set: CCRIS mutagenicity studies.
Setting [1] is: Test System: AMES SALMONELLA TYPHIMURIUM, Strain/Indicator: TA98, Metabolic Activation: NONE, Method: PREINCUBATION
The mark [2] stands for this setting: Test System: AMES SALMONELLA TYPHIMURIUM, Strain/Indicator: TA100, Metabolic Activation: NONE, Method: PREINCUBATION
The mark [3] stands for this setting: Test System: AMES SALMONELLA TYPHIMURIUM, Strain/Indicator: TA102, Metabolic Activation: NONE, Method: PREINCUBATION

Molecules are shown by their SMILES. Calls of active or inactive are those of the source. How the calls were made is not given here.

For the compound `O=CCC=O`, the mutagenic call by setting is: (End Point: IN VITRO CHROMOSOMAL ABERRATIONS, Test System: CHO CELLS, Metabolic Activation: RAT, LIVER, S-9, AROCLOR 1254) “inactive; negative”; (Test System: AMES SALMONELLA TYPHIMURIUM, Strain/Indicator: HISD3052, Metabolic Activation: NONE, Method: STANDARD PLATE) “active; positive”; (Test System: AMES SALMONELLA TYPHIMURIUM, Strain/Indicator: TA94, Metabolic Activation: NONE, Method: STANDARD PLATE) “inactive; negative”; (Test System: AMES SALMONELLA TYPHIMURIUM, Strain/Indicator: TA98, Metabolic Activation: HAMSTER, LIVER, S-9, AROCLOR 1254, Method: PREINCUBATION) “inactive; negative”; under setting [1], “inactive; negative”; (Test System: AMES SALMONELLA TYPHIMURIUM, Strain/Indicator: TA98, Metabolic Activation: RAT, LIVER, S-9, AROCLOR 1254, Method: PREINCUBATION) “inactive; negative”. Moreover, the mutagenic call reads like this: (Test System: AMES SALMONELLA TYPHIMURIUM, Strain/Indicator: TA100, Metabolic Activation: HAMSTER, LIVER, S-9, AROCLOR 1254, Method: PREINCUBATION) “inactive; negative”; under setting [2], “inactive; negative”; (Test System: AMES SALMONELLA TYPHIMURIUM, Strain/Indicator: TA100, Metabolic Activation: RAT, LIVER, S-9, AROCLOR 1254, Method: PREINCUBATION) “inactive; negative”; under setting [3], “active; positive”; (Test System: AMES SALMONELLA TYPHIMURIUM, Strain/Indicator: TA104, Metabolic Activation: NONE, Method: PREINCUBATION) “active; positive”; (Test System: AMES SALMONELLA TYPHIMURIUM, Strain/Indicator: TA1535, Metabolic Activation: HAMSTER, LIVER, S-9, AROCLOR 1254, Method: PREINCUBATION) “inactive; negative”. For the same compound, the mutagenic call (Test System: AMES SALMONELLA TYPHIMURIUM, Strain/Indicator: TA1535, Metabolic Activation: NONE, Method: PREINCUBATION) was “inactive; negative”; the mutagenic call (Test System: AMES SALMONELLA TYPHIMURIUM, Strain/Indicator: TA1535, Metabolic Activation: RAT, LIVER, S-9, AROCLOR 1254, Method: PREINCUBATION) was “inactive; negative”; the mutagenic call (Test System: AMES SALMONELLA TYPHIMURIUM, Strain/Indicator: TA1537, Metabolic Activation: HAMSTER, LIVER, S-9, AROCLOR 1254, Method: PREINCUBATION) was “inactive; negative”; the mutagenic call (Test System: AMES SALMONELLA TYPHIMURIUM, Strain/Indicator: TA1537, Metabolic Activation: NONE, Method: PREINCUBATION) is “inactive; negative”; the mutagenic call (Test System: AMES SALMONELLA TYPHIMURIUM, Strain/Indicator: TA1537, Metabolic Activation: RAT, LIVER, S-9, AROCLOR 1254, Method: PREINCUBATION) is “inactive; negative”; the mutagenic call (Test System: MOUSE LYMPHOMA, Strain/Indicator: L5178Y (TK+/TK-), Metabolic Activation: NONE, Method: SUSPENSION/PLATE) was “active; positive”.

With `CC(N)[13C](=O)O` (stereo unspecified), the mutagenic call is “inactive; negative” (Test System: AMES SALMONELLA TYPHIMURIUM, Strain/Indicator: TA97, Metabolic Activation: NONE, Method: PREINCUBATION); “inactive; negative” (Test System: AMES SALMONELLA TYPHIMURIUM, Strain/Indicator: TA97, Metabolic Activation: RAT, LIVER, S-9, AROCLOR 1254, Method: PREINCUBATION); “inactive; negative” under setting [3]; “inactive; negative” (Test System: AMES SALMONELLA TYPHIMURIUM, Strain/Indicator: TA102, Metabolic Activation: RAT, LIVER, S-9, AROCLOR 1254, Method: PREINCUBATION).

Turning to `O=[N+]([O-])c1ccc(CNc2ncnc3c2ncn3[C@@H]2O[C@H](CO)[C@@H](O)[C@H]2O)cc1`, the mutagenic call (Test System: AMES SALMONELLA TYPHIMURIUM, Strain/Indicator: TA98(1,8-DNP), Metabolic Activation: NONE, Method: PREINCUBATION) was “inactive; negative”; the mutagenic call (Test System: AMES SALMONELLA TYPHIMURIUM, Strain/Indicator: TA98(1,8-DNP), Metabolic Activation: RAT, LIVER, S-9, PCB, Method: PREINCUBATION) is “inactive; negative”; the mutagenic call (Test System: AMES SALMONELLA TYPHIMURIUM, Strain/Indicator: TA98(NR), Metabolic Activation: NONE, Method: PREINCUBATION) is “inactive; negative”; the mutagenic call (Test System: AMES SALMONELLA TYPHIMURIUM, Strain/Indicator: TA98(NR), Metabolic Activation: RAT, LIVER, S-9, PCB, Method: PREINCUBATION) was “inactive; negative”; the mutagenic call under setting [1] was “inactive; negative”; the mutagenic call (Test System: AMES SALMONELLA TYPHIMURIUM, Strain/Indicator: TA98, Metabolic Activation: RAT, LIVER, S-9, PCB, Method: PREINCUBATION) is “inactive; negative”. Also, the mutagenic call is, setting by setting: (Test System: AMES SALMONELLA TYPHIMURIUM, Strain/Indicator: TA100(1,8-DNP), Metabolic Activation: NONE, Method: PREINCUBATION) “inactive; negative”; (Test System: AMES SALMONELLA TYPHIMURIUM, Strain/Indicator: TA100(1,8-DNP), Metabolic Activation: RAT, LIVER, S-9, PCB, Method: PREINCUBATION) “inactive; negative”; (Test System: AMES SALMONELLA TYPHIMURIUM, Strain/Indicator: TA100(NR), Metabolic Activation: NONE, Method: PREINCUBATION) “inactive; negative”; (Test System: AMES SALMONELLA TYPHIMURIUM, Strain/Indicator: TA100(NR), Metabolic Activation: RAT, LIVER, S-9, PCB, Method: PREINCUBATION) “inactive; negative”; under setting [2], “inactive; negative”; (Test System: AMES SALMONELLA TYPHIMURIUM, Strain/Indicator: TA100, Metabolic Activation: RAT, LIVER, S-9, PCB, Method: PREINCUBATION) “inactive; negative”. In addition, the mutagenic call is “active; positive” (Test System: AMES SALMONELLA TYPHIMURIUM, Strain/Indicator: YG1020, Metabolic Activation: NONE, Method: PREINCUBATION); “inactive; negative” (Test System: AMES SALMONELLA TYPHIMURIUM, Strain/Indicator: YG1020, Metabolic Activation: RAT, LIVER, S-9, PCB, Method: PREINCUBATION); “active; positive” (Test System: AMES SALMONELLA TYPHIMURIUM, Strain/Indicator: YG1021, Metabolic Activation: NONE, Method: PREINCUBATION); “active; positive” (Test System: AMES SALMONELLA TYPHIMURIUM, Strain/Indicator: YG1021, Metabolic Activation: RAT, LIVER, S-9, PCB, Method: PREINCUBATION); “active; positive” (Test System: AMES SALMONELLA TYPHIMURIUM, Strain/Indicator: YG1024, Metabolic Activation: NONE, Method: PREINCUBATION); “inactive; negative” (Test System: AMES SALMONELLA TYPHIMURIUM, Strain/Indicator: YG1024, Metabolic Activation: RAT, LIVER, S-9, PCB, Method: PREINCUBATION). Also, the mutagenic call by setting is: (Test System: AMES SALMONELLA TYPHIMURIUM, Strain/Indicator: YG1025, Metabolic Activation: NONE, Method: PREINCUBATION) “inactive; negative”; (Test System: AMES SALMONELLA TYPHIMURIUM, Strain/Indicator: YG1025, Metabolic Activation: RAT, LIVER, S-9, PCB, Method: PREINCUBATION) “inactive; negative”; (Test System: AMES SALMONELLA TYPHIMURIUM, Strain/Indicator: YG1026, Metabolic Activation: NONE, Method: PREINCUBATION) “inactive; negative”; (Test System: AMES SALMONELLA TYPHIMURIUM, Strain/Indicator: YG1026, Metabolic Activation: RAT, LIVER, S-9, PCB, Method: PREINCUBATION) “inactive; negative”; (Test System: AMES SALMONELLA TYPHIMURIUM, Strain/Indicator: YG1029, Metabolic Activation: NONE, Method: PREINCUBATION) “inactive; negative”; (Test System: AMES SALMONELLA TYPHIMURIUM, Strain/Indicator: YG1029, Metabolic Activation: RAT, LIVER, S-9, PCB, Method: PREINCUBATION) “inactive; negative”.

As to `CCCNNCCC`, the mutagenic call reads like this: (Test System: AMES SALMONELLA TYPHIMURIUM, Strain/Indicator: TA100, Metabolic Activation: NONE, Method: PREINCUBATION (11 HR GROWTH PERIOD FOR BACTERIA)) “active; positive”; (Test System: AMES SALMONELLA TYPHIMURIUM, Strain/Indicator: TA100, Metabolic Activation: RAT, LIVER, S-9, PCB, Method: PREINCUBATION (11 HR GROWTH PERIOD FOR BACTERIA)) “inactive; negative”; (Test System: AMES SALMONELLA TYPHIMURIUM, Strain/Indicator: TA102, Metabolic Activation: NONE, Method: PREINCUBATION (5 OR 7 HR GROWTH PERIOD FOR BACTERIA)) “active; positive”; (Test System: AMES SALMONELLA TYPHIMURIUM, Strain/Indicator: TA102, Metabolic Activation: RAT, LIVER, S-9, PCB, Method: PREINCUBATION (5 OR 7 HR GROWTH PERIOD FOR BACTERIA)) “active; positive”.

For the compound `CCC(=O)CN(C)N=O`, the mutagenic call (Test System: CHINESE HAMSTER V-79, Strain/Indicator: V-79/OUABAIN, Metabolic Activation: HAMSTER, HEPATOCYTES, Method: CELL-MEDIATED) was “active; positive”.
